Experimental data: patent US20120282296A1, “METHODS FOR IMPROVING THE DESIGN, BIOAVAILABILITY, AND EFFICACY OF DIRECTED SEQUENCE POLYMER COMPOSITIONS VIA SERUM PROTEIN-BASED DETECTION OF DIRECTED SEQUENCE POLYMER COMPOSITIONS” (ARES TRADING SA, priority 2009, published 2012)

How the values were obtained:
[1] = YEAK in serum of mice after IV or SC dosing, detected by anti-YEAK ELISA; format: in vivo
[2] = tested on: monocyte cell line RAW264.7; experiment: CCL22 release bioassay in the monocyte cell line RAW264.7; format: cell-based
Description: Following synthesis of different DSP compositions, for example by solid phase synthesis or by solution phase synthesis, the individual lots or batches made by the same manufacturing process, and individual batches of mixtures manufactured by different processes may be tested and compared for variation using bioassays. Depending on the indication of the DSP composition, appropriate bioassays include the release of CCL22 by the monocyte cell line RAW264.7, ex vivo proliferation assays, and measuring the binding of serum proteins to peptides in the DSP composition. Using these bioassays, one may determine subsets of peptides or even individual peptides that are present in any given process or lot. Processes and lots of DSP compositions will be compared to determine whether the same subsets of peptides and/or types of peptides are consistently represented across the different processes and lots.

[3] = tested on: Ig fraction of rabbit polyserum; experiment: ELISA with Ig fraction of rabbit polyserum; format: binding
CCL22 = experiment: Acute release of CCL22 (MDC) in serum or plasma after SC YEAK administration in mice; format: in vivo
[4] = various species, including man; cited from earlier work
[5] = mice dosed IV 4 mg/kg or SC 21 mg/kg, route for this value not stated

maximum serum concentration [1, 5] [ng/mL]	time of maximum serum concentration post dosing [1, 5]	detection in serum at 2 hours post-dosing ([1]; mice, 2 hours post-dosing)	Substance	CCL22 release by RAW264.7 cells [2]	interaction with / recognition by Ig fraction of rabbit polyserum [3]	relation between dose administered SC and observed maximum CCL22 plasma concentration (CCL22)	persistence in serum after subcutaneous administration [4]
1800	around 15 min	still detected	glatiramer acetate [Copaxone]	released CCL22 in a concentration dependent manner	interacts strongly	linear correlation	can be detected in serum of various species, including man, several hours after subcutaneous administration
			plovamer [PI-2301]				can be detected in serum of various species, including man, several hours after subcutaneous administration
